# Data taken from patent publication US20070049593A1 (priority 2004, published 2007).
# Structures can show the parent of a compound that is named as a salt.
# Target: T1, HCV polymerase (Hepatitis C virus genotype 1b, UniProt P26663)
# T1 construct: a region encoding NS5B (J Virol 1991 March, 65(3), 1105-13, 544 amino acids after deletion of 47 amino acids on the C-terminal); 6xHis (C); made in house; host or cells: Escherichia coli
# Test: biochemical
# Parameters: species or system HCV BK strain
# Procedure, shortened: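 Recombinant HCV BK-strain NS5B (C-terminal 47 aa deleted, His6-tagged, E. coli), 0.5 μg/ml, run with 5 μg/ml in vitro-transcribed RNA template (polyU/3′X), ATP/GTP/CTP 50 μM, UTP 2 μM plus [3H]UTP, pH 7.5, 25° C, 90 min. TCA-precipitated RNA counted by scintillation; IC50 from activity with vs without compound.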
# T1 sequence (P26663 2420-2963): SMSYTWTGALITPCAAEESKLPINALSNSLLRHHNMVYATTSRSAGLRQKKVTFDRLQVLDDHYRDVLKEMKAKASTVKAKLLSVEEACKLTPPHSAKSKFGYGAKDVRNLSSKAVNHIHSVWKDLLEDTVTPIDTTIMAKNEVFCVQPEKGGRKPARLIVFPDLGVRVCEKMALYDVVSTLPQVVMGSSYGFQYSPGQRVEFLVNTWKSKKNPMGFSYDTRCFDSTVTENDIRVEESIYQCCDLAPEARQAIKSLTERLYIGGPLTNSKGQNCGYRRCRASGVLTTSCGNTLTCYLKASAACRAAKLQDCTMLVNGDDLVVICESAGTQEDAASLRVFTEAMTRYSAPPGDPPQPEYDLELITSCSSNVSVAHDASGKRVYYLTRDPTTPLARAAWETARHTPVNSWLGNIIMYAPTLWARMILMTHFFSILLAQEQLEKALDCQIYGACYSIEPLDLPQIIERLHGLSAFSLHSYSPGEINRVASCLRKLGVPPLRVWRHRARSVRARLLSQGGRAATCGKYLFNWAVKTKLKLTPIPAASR
row,Compound,IC50 [nM]
1,"CS(=O)(=O)c1ccc(N2CCOCC2)c(COc2ccc3c(c2)OCCn2c-3c(C3CCCCC3)c3ccc(C(N)=O)cc32)c1 [Example 2-48, 12-cyclohexyl-3-[5-methanesulfonyl-2-(morpholin-4-yl)benzyloxy]-6,7-dihydro-5-oxa-7a-azadibenzo[a,e]azulene-9-carboxamide monohydrochloride]",< 100
2,"COC(=O)N[C@H](COc1ccc2c(c1)OCCn1c-2c(C2CCCCC2)c2ccc(C(=O)O)cc21)Cc1ccccc1 [Example 2-49, 12-cyclohexyl-3-((S)-2-methoxycarbonylamino-3-phenylpropoxy)-6,7-dihydro-5-oxa-7a-azadibenzo[a,e]azulene-9-carboxylic acid]",< 100
3,"COC(=O)N1CC[C@H](Oc2ccc3c(c2)OCCn2c-3c(C3CCCCC3)c3ccc(C(=O)O)cc32)C1 [Example 2-50, 12-cyclohexyl-3-((S)-1-methoxycarbonylpyrrolidin-3-yloxy)-6,7-dihydro-5-oxa-7a-azadibenzo[a,e]azulene-9-carboxylic acid]",< 100
4,"CC(C)[C@@H](COc1ccc2c(c1)OCCn1c-2c(C2CCCCC2)c2ccc(C(=O)O)cc21)NS(C)(=O)=O [Example 2-51, 12-cyclohexyl-3-((S)-2-methanesulfonylamino-3-methylbutoxy)-6,7-dihydro-5-oxa-7a-azadibenzo[a,e]azulene-9-carboxylic acid]",< 100
5,"COC(=O)Nc1ccccc1Oc1ccc2c(c1)OCCn1c-2c(C2CCCCC2)c2ccc(C(=O)O)cc21 [Example 2-52, 12-cyclohexyl-3-[2-(methoxycarbonylamino)phenoxy]-6,7-dihydro-5-oxa-7a-azadibenzo[a,e]azulene-9-carboxylic acid]",< 100
6,"O=C(O)c1ccc2c(C3CCCCC3)c3n(c2c1)CCOc1c(OCCN2CCCCC2)cccc1-3 [Example 2-53, 12-cyclohexyl-4-[2-(piperidin-1-yl)ethoxy]-6,7-dihydro-5-oxa-7a-azadibenzo[a,e]azulene-9-carboxylic acid hydrochloride]",< 100
7,"O=C(O)c1ccc(NC(=O)C2(NC(=O)c3ccc4c(C5CCCCC5)c5n(c4c3)CCOc3ccccc3-5)CCC2)nc1 [Example 2-54, 6-({1-[(12-cyclohexyl-6,7-dihydro-5-oxa-7a-azadibenzo[a,e]azulene-9-carbonyl)amino]cyclobutanecarbonyl}amino)nicotinic acid]",< 100
8,"O=C(O)CNC(=O)C1(NC(=O)c2ccc3c(C4CCCCC4)c4n(c3c2)CCOc2ccccc2-4)CCC1 [Example 2-55, ({1-[(12-cyclohexyl-6,7-dihydro-5-oxa-7a-azadibenzo[a,e]azulene-9-carbonyl)amino]cyclobutanecarbonyl}amino)acetic acid]",< 100
9,"O=C(NC1(C(=O)NC2(C(=O)O)CCC2)CCC1)c1ccc2c(C3CCCCC3)c3n(c2c1)CCOc1ccccc1-3 [Example 2-151, 1-({1-[(12-cyclohexyl-6,7-dihydro-5-oxa-7a-azadibenzo[a,e]azulene-9-carbonyl)amino]cyclobutanecarbonyl}amino)cyclobutanecarboxylic acid]",< 100
10,"COC(=O)c1ccc2nc(C3(NC(=O)c4ccc5c(C6CCCCC6)c6n(c5c4)CCOc4ccccc4-6)CCC3)[nH]c2c1 [Example 2-152, methyl 2-{1-[(12-cyclohexyl-6,7-dihydro-5-oxa-7a-azadibenzo[a,e]azulene-9-carbonyl)amino]cyclobutyl}-3H-benzimidazole-5-carboxylate]",< 100
11,"O=C(O)c1ccc(N[C@@H]2CCCC[C@H]2NC(=O)c2ccc3c(C4CCCCC4)c4n(c3c2)CCOc2ccccc2-4)cc1 [Example 2-153, 4-{(1R,2R)-2-[(12-cyclohexyl-6,7-dihydro-5-oxa-7a-azadibenzo[a,e]azulene-9-carbonyl)amino]cyclohexylamino}benzoic acid]",< 100
12,"COCC(C)(NC(=O)c1ccc2c(C3CCCCC3)c3n(c2c1)CCOc1ccccc1-3)C(=O)O (centres unmarked) [Example 2-154, 2-[(12-cyclohexyl-6,7-dihydro-5-oxa-7a-azadibenzo[a,e]azulene-9-carbonyl)amino]-3-methoxy-2-methylpropionic acid]",100 to 1000
13,"CC(C)(C)OC(=O)N1CCC(NC(=O)c2ccc3c(C4CCCCC4)c4n(c3c2)CCOc2ccccc2-4)(C(=O)Nc2ccc(/C=C/C(=O)O)cc2)CC1 [Example 2-155, tert-butyl 4-[4-((E)-2-carboxyvinyl)phenylcarbamoyl]-4-[(12-cyclohexyl-6,7-dihydro-5-oxa-7a-azadibenzo[a,e]azulene-9-carbonyl)amino]piperidine-1-carboxylate]",< 100
14,"CC(C)(COc1ccc(C(=O)O)cc1)NC(=O)c1ccc2c(C3CCCCC3)c3n(c2c1)CCOc1ccccc1-3 [Example 2-156, 4-{2-[(12-cyclohexyl-6,7-dihydro-5-oxa-7a-azadibenzo[a,e]azulene-9-carbonyl)amino]-2-methylpropoxy}benzoic acid]",< 100
15,"CC(C)(COc1ccc(C#N)cc1)NC(=O)c1ccc2c(C3CCCCC3)c3n(c2c1)CCOc1ccccc1-3 [Example 2-157, N-[2-(4-cyanophenoxy)-1,1-dimethylethyl]-12-cyclohexyl-6,7-dihydro-5-oxa-7a-azadibenzo[a,e]azulene-9-carboxamide]",100 to 1000
16,"CC(C)(CNc1ccc(C#N)cc1)NC(=O)c1ccc2c(C3CCCCC3)c3n(c2c1)CCOc1ccccc1-3 [Example 2-158, N-[2-(4-cyanophenylamino)-1,1-dimethylethyl]-12-cyclohexyl-6,7-dihydro-5-oxa-7a-azadibenzo[a,e]azulene-9-carboxamide]",< 100
17,"O=C(O)c1ccc2nc(C3(NC(=O)c4ccc5c(C6CCCCC6)c6n(c5c4)CCOc4ccccc4-6)CCC3)[nH]c2c1 [Example 2-160, 2-{1-[(12-cyclohexyl-6,7-dihydro-5-oxa-7a-azadibenzo[a,e]azulene-9-carbonyl)amino]cyclobutyl}-3H-benzimidazole-5-carboxylic acid]",< 100
18,"CC(C)N(CCN1CCCCC1)c1cccc2c1OCCn1c-2c(C2CCCCC2)c2ccc(C(=O)O)cc21 [Example 2-161, 12-cyclohexyl-4-{N-isopropyl-N-[2-(piperidin-1-yl)ethyl]amino}-6,7-dihydro-5-oxa-7a-azadibenzo[a,e]azulene-9-carboxylic acid dihydrochloride]",< 100
19,"CN(C)CCN(C)c1cccc2c1OCCn1c-2c(C2CCCCC2)c2ccc(C(=O)O)cc21 [Example 2-162, 12-cyclohexyl-4-[N-(2-dimethylaminoethyl)-N-methylamino]-6,7-dihydro-5-oxa-7a-azadibenzo[a,e]azulene-9-carboxylic acid dihydrochloride]",< 100
20,"COCC(C)(NC(=O)c1ccc2c(C3CCCCC3)c3n(c2c1)CCOc1ccccc1-3)C(=O)Nc1ccc(/C=C/C(=O)O)cc1 (centres unmarked) [Example 2-163, (E)-3-(4-{2-[(12-cyclohexyl-6,7-dihydro-5-oxa-7a-azadibenzo[a,e]azulene-9-carbonyl)amino]-3-methoxy-2-methylpropionylamino}phenyl)acrylic acid]",< 100
21,"O=C(NCCOCCO)c1ccc2c(C3CCCCC3)c3n(c2c1)CCOc1ccccc1-3 [Example 2-164, N-[2-(2-hydroxyethoxy)ethyl]-12-cyclohexyl-6,7-dihydro-5-oxa-7a-azadibenzo[a,e]azulene-9-carboxamide]",100 to 1000
22,"CC(C)(C)NC(=O)c1ccc2c(C3CCCCC3)c3n(c2c1)CCOc1ccccc1-3 [Example 2-165, N-tert-butyl-12-cyclohexyl-6,7-dihydro-5-oxa-7a-azadibenzo[a,e]azulene-9-carboxamide]",100 to 1000
23,"O=C(N[C@H]1CC[C@H](O)CC1)c1ccc2c(C3CCCCC3)c3n(c2c1)CCOc1ccccc1-3 [Example 2-166, N-(trans-4-hydroxycyclohexyl)-12-cyclohexyl-6,7-dihydro-5-oxa-7a-azadibenzo[a,e]azulene-9-carboxamide]",< 100
24,"CC(C)(NC(=O)c1ccc2c(C3CCCCC3)c3n(c2c1)CCOc1ccccc1-3)c1nc(C(=O)O)cs1 [Example 2-167, 2-{1-[(12-cyclohexyl-6,7-dihydro-5-oxa-7a-azadibenzo[a,e]azulene-9-carbonyl)amino]-1-methylethyl}thiazole-4-carboxylic acid]",< 100
25,"CCN(CCN1CCCOCC1)c1cccc2c1OCCn1c-2c(C2CCCCC2)c2ccc(C(=O)O)cc21 [Example 2-168, 12-cyclohexyl-4-{N-ethyl-N-[2-(1,4-oxazepan-4-yl)ethyl]amino}-6,7-dihydro-5-oxa-7a-azadibenzo[a,e]azulene-9-carboxylic acid dihydrochloride]",< 100
26,"CCN(CCCN1CCCCC1)c1cccc2c1OCCn1c-2c(C2CCCCC2)c2ccc(C(=O)O)cc21 [Example 2-169, 12-cyclohexyl-4-{N-ethyl-N-[3-(piperidin-1-yl)propyl]amino}-6,7-dihydro-5-oxa-7a-azadibenzo[a,e]azulene-9-carboxylic acid dihydrochloride]",< 100
27,"CCN(CCN1CCOCC1)c1cccc2c1OCCn1c-2c(C2CCCCC2)c2ccc(C(=O)O)cc21 [Example 2-170, 12-cyclohexyl-4-{N-ethyl-N-[2-(morpholin-4-yl)ethyl]amino}-6,7-dihydro-5-oxa-7a-azadibenzo[a,e]azulene-9-carboxylic acid dihydrochloride]",< 100
28,"CC(C)(NC(=O)c1ccc2c(C3CCCCC3)c3n(c2c1)CCOc1ccccc1-3)c1ccc(CO)cc1 [Example 2-171, N-[1-(4-hydroxymethylphenyl)-1-methylethyl]-12-cyclohexyl-6,7-dihydro-5-oxa-7a-azadibenzo[a,e]azulene-9-carboxamide]",< 100
29,"CCOC(=O)c1csc(C(C)(C)NC(=O)c2ccc3c(C4CCCCC4)c4n(c3c2)CCOc2ccccc2-4)n1 [Example 2-172, ethyl 2-{1-[(12-cyclohexyl-6,7-dihydro-5-oxa-7a-azadibenzo[a,e]azulene-9-carbonyl)amino]-1-methylethyl}thiazole-4-carboxylate]",< 100
